Among the data in ChEMBL document CHEMBL1130990, “High-throughput synthesis and direct screening for the discovery of novel hydrolytic metal complexes” (Bioorg Med Chem Lett, 1998) are Ratio values, retold here.

The nature of data set [1]: Compound was evaluated for rate enhancement, obtained in the hydrolysis of para-nitrophenyl acetate (Ko = 1.6 x 10 e-4/min); ratio=Kobs/K0. The format is ADME.
Data set [2] can be described thus: Compound was evaluated for rate enhancement, obtained in the hydrolysis of N-methoxycarbonyl-L-phenylalanine-p-nitrophenylester (Ko = 1.1 x 10 e-3/min); ratio=Kobs/K0. It counts as ADME.

Turning to `[O-][Cl+3]([O-])([O-])[O][Zn][O][Cl+3]([O-])([O-])[O-].c1ccc(OC2COc3ccccc3CNCCNCCNCc3ccccc3OC2)cc1`, the Ratio in data set [1] came out at 2.5; in data set [2], 3.9.

Turning to `OC1COc2ccccc2CNCCNCCNCc2ccccc2OC1.[O-][Cl+3]([O-])([O-])[O][Zn][O][Cl+3]([O-])([O-])[O-]`, the Ratio in data set [1] is 1.7; in data set [2], 2.9.

For `COC1COc2ccccc2CNCCNCCNCc2ccccc2OC1.[O-][Cl+3]([O-])([O-])[O][Zn][O][Cl+3]([O-])([O-])[O-]`, the Ratio in data set [1] was 2.4; in data set [2] it was 3.

As to `[O-][Cl+3]([O-])([O-])[O][Zn][O][Cl+3]([O-])([O-])[O-].c1ccc2c(c1)CNCCNCCNCc1ccccc1OCC(Oc1ccc3ccccc3c1)CO2`, the Ratio worked out at 2.9 in data set [1] and 4.7 in data set [2].
